{
  "source": "patent US20260053811A1",
  "about": "“METHODS OF TREATING HYPERTENSION IN OBESE SUBJECTS” (Mineralys Therapeutics, Inc., priority 2022, published 2026)",
  "test_system": "hypertensive subjects",
  "assay": "Seated automated office blood pressure (AOBP) in randomized, placebo-controlled, dose-ranging study",
  "format": "in vivo, human",
  "conditions": "Part 1",
  "experimental": "A randomized, double-blinded, placebo-controlled, dose-ranging, multicenter study was conducted to evaluate the effect of orally administered Compound A HBr on blood pressure for the treatment of hypertension in male and female subjects ≥18 years of age.\nThe study consists of two parts. For enrollment into Part 1 of the study, a subject's value of plasma renin activity (PRA) must be ≤1 ng/mL/h based on morning measurement. If the value of PRA >1 ng/mL/h based on morning measurement, then subjects may be eligible to enter Part 2 of the study.\nFor Part 1, 163 enrolled subjects ≥18 years of age were randomized into 6 equal treatment groups (1:1:1:1:1:1) to 12.5 mg BID, 25 mg BID, 12.5 mg QD, 50 mg QD, 100 mg QD, or placebo. After a review of interim clinical data, the 2 lowest dose levels (12.5 mg QD and 12.5 mg BID) were stopped for future randomization due to a lack of consistent meaningful reduction of blood pressure, but the patients randomized to that point remained in the study through completion. Thus, after the review of interim clinical data, subjects were randomized into 4 equal treatment groups (1:1:1:1) to 25 mg BID, 50 mg QD, 100 mg QD, or placebo.\nFor Part 2, 36 enrolled subjects ≥18 years of age were randomized (5:1) to either 100 mg QD Compound A HBr or placebo such that the Compound A HBr treatment group consisted of approximately 30 subjects and the placebo treatment group will consist of approximately 6 subjects.\nSubjects orally administered the assigned study drug (Compound A HBr or placebo) according to the assigned dosing regimen for 8 weeks beginning on Study Day 1. All subjects in Part 1 (regardless of dosing group) received BID dosing to preserve the integrity of the blind; active drug is administered as the morning dose for all QD dose groups. Subjects returned to the research facility or were seen by the clinical investigator or approved home health care professional at the end of Study Weeks 1, 2, 3, 4, 5, 6, 7, and 8 (±2 days) for protocol-defined efficacy and safety assessments and procedures, assessment of adverse events (AEs), and confirmation of compliance with study drug usage. Subjects also completed a telephone visit and blood pressure (BP) check at home approximately 3 days post last dose of study drug. Subjects attended up to 14 full clinic visits, including a pre-Screening visit, a Screening/start of Placebo Run-in visit, a second visit during Placebo Run-in, a clinic visit to initiate the ABPM procedure, a Randomization visit, 8 weekly visits during double-blind treatment, and an end-of-study visit scheduled 4 weeks after the last study treatment for final efficacy and safety assessments.\nAn automated oscillometric sphygmomanometer device was used to measure the subjects' systolic and diastolic blood pressure in office after approximately 5 minutes of rest in the seated position.\nThe primary endpoint is the change in office-measured (mean of last 2 of 5 unattended measurements using an automated oscillometric sphygmomanometer device after approximately 5 minutes of rest in the seated position) systolic blood pressure (SBP) from baseline to the end of Study Week 8.\nSecondary endpoints of this study were: • (a) Change in 24-hour ambulatory blood pressure monitoring (ABPM) parameters (systolic and diastolic) from baseline to the end of Study Week 7. • (b) Change in office-measured SBP from baseline to the end of Study Weeks 1, 2, 3, 4, 5, 6, and 7. • (c) Change in office-measured diastolic blood pressure (DBP) from baseline to the end of Study Weeks 1, 2, 3, 4, 5, 6, 7, and 8. • (d) Proportion of subjects who achieve office-measured BP of ≤130/80 mm Hg by the end of Study Week 8.",
  "key": {"[1]": {"conditions": "12.5 mg QD, Systolic Blood Pressure Tertile at Baseline Low"}, "[2]": {"conditions": "12.5 mg QD, Systolic Blood Pressure Tertile at Baseline Middle"}, "[3]": {"conditions": "12.5 mg QD, Thiazide Diuretic Use at Baseline No"}, "[4]": {"conditions": "12.5 mg QD, Thiazide Diuretic Use at Baseline Yes"}},
  "data": [
    {"smiles": "CC(=O)N[C@H]1CC[C@H](NC(=O)CN2CCN(c3nncc(-c4ccc(C)cc4)n3)CC2)CC1", "note": "[Compound A HBr]", "values": [
      {"measurement": "Mean (SD) Change from Baseline at Week 8 in Automated Office-Measured Systolic Blood Pressure", "setting": "12.5 mg QD, Systolic Blood Pressure Tertile at Baseline High", "result": "−10.83 (23.91) mmHg"},
      {"measurement": "Mean (SD) Automated Office-Measured Systolic Blood Pressure at Wk 8", "setting": "[1]", "result": "131.17 (12.77) mmHg"},
      {"measurement": "Mean (SD) Change from Baseline at Week 8 in Automated Office-Measured Systolic Blood Pressure", "setting": "[1]", "result": "−3.75 (13.24) mmHg"},
      {"measurement": "Mean (SD) Automated Office-Measured Systolic Blood Pressure at Wk 8", "setting": "[2]", "result": "143.33 (22.23) mmHg"},
      {"measurement": "Mean (SD) Change from Baseline at Week 8 in Automated Office-Measured Systolic Blood Pressure", "setting": "[2]", "result": "−1.17 (21.80) mmHg"},
      {"measurement": "Automated Office-Measured Diastolic Blood Pressure, Week 8, Mean (SD)", "setting": "[3]", "result": "88.11 (21.40) mmHg"},
      {"measurement": "Mean (SD) Automated Office-Measured Systolic Blood Pressure at Wk 8", "setting": "[3]", "result": "149.11 (26.02) mmHg"},
      {"measurement": "Mean (SD) Change from Baseline at Week 8 in Automated Office-Measured Diastolic Blood Pressure", "setting": "[3]", "result": "1.56 (17.70) mmHg"},
      {"measurement": "Mean (SD) Change from Baseline at Week 8 in Automated Office-Measured Systolic Blood Pressure", "setting": "[3]", "result": "−5.83 (25.10) mmHg"},
      {"measurement": "Automated Office-Measured Diastolic Blood Pressure, Week 8, Mean (SD)", "setting": "[4]", "result": "74.78 (8.58) mmHg"},
      {"measurement": "Mean (SD) Automated Office-Measured Systolic Blood Pressure at Wk 8", "setting": "[4]", "result": "132.44 (14.02) mmHg"},
      {"measurement": "Mean (SD) Change from Baseline at Week 8 in Automated Office-Measured Diastolic Blood Pressure", "setting": "[4]", "result": "−5.11 (6.26) mmHg"},
      {"measurement": "Mean (SD) Change from Baseline at Week 8 in Automated Office-Measured Systolic Blood Pressure", "setting": "[4]", "result": "−7.89 (14.31) mmHg"},
      {"measurement": "Mean (SD) Automated Office-Measured Systolic Blood Pressure at Wk 8", "setting": "25 mg BID, ACEi/ARB No", "result": "123.67 (28.36) mmHg"},
      {"measurement": "Mean (SD) Change from Baseline at Week 8 in Automated Office-Measured Systolic Blood Pressure", "setting": "25 mg BID, ACEi/ARB No", "result": "−19.17 (12.25) mmHg"},
      {"measurement": "Mean (SD) Automated Office-Measured Systolic Blood Pressure at Wk 8", "setting": "25 mg BID, ACEi/ARB Yes", "result": "132.20 (15.32) mmHg"},
      {"measurement": "Mean (SD) Change from Baseline at Week 8 in Automated Office-Measured Systolic Blood Pressure", "setting": "25 mg BID, ACEi/ARB Yes", "result": "−9.04 (14.04) mmHg"},
      {"measurement": "Mean (SD) Automated Office-Measured Diastolic Blood Pressure at Wk 8", "setting": "25 mg BID, ACEi/ARBs No", "result": "68.67 (8.33) mmHg"},
      {"measurement": "Mean (SD) Change from Baseline at Week 8 in Automated Office-Measured Diastolic Blood Pressure", "setting": "25 mg BID, ACEi/ARBs No", "result": "−10.33 (13.25) mmHg"},
      {"measurement": "Mean (SD) Automated Office-Measured Diastolic Blood Pressure at Wk 8", "setting": "25 mg BID, ACEi/ARBs Yes", "result": "76.24 (13.40) mmHg"},
      {"measurement": "Mean (SD) Change from Baseline at Week 8 in Automated Office-Measured Diastolic Blood Pressure", "setting": "25 mg BID, ACEi/ARBs Yes", "result": "−2.88 (11.56) mmHg"},
      {"measurement": "Mean (SD) Automated Office-Measured Diastolic Blood Pressure at Wk 8", "setting": "25 mg BID, AHTs 2", "result": "79.31 (15.91) mmHg"},
      {"measurement": "Mean (SD) Automated Office-Measured Systolic Blood Pressure at Wk 8", "setting": "25 mg BID, AHTs 2", "result": "136.92 (18.45) mmHg"},
      {"measurement": "Mean (SD) Change from Baseline at Week 8 in Automated Office-Measured Diastolic Blood Pressure", "setting": "25 mg BID, AHTs 2", "result": "−2.12 (15.46) mmHg"},
      {"measurement": "Mean (SD) Change from Baseline at Week 8 in Automated Office-Measured Systolic Blood Pressure", "setting": "25 mg BID, AHTs 2", "result": "−6.15 (13.68) mmHg"},
      {"measurement": "Mean (SD) Automated Office-Measured Diastolic Blood Pressure at Wk 8", "setting": "25 mg BID, AHTs ≥3", "result": "72.07 (9.26) mmHg"},
      {"measurement": "Mean (SD) Automated Office-Measured Systolic Blood Pressure at Wk 8", "setting": "25 mg BID, AHTs ≥3", "result": "126.40 (13.57) mmHg"},
      {"measurement": "Mean (SD) Change from Baseline at Week 8 in Automated Office-Measured Diastolic Blood Pressure", "setting": "25 mg BID, AHTs ≥3", "result": "−5.03 (7.45) mmHg"},
      {"measurement": "Mean (SD) Change from Baseline at Week 8 in Automated Office-Measured Systolic Blood Pressure", "setting": "25 mg BID, AHTs ≥3", "result": "−13.57 (13.83) mmHg"},
      {"measurement": "Mean (SD) Automated Office-Measured Diastolic Blood Pressure at Wk 8", "setting": "25 mg BID, Age 65-79 yr", "result": "74.71 (17.26) mmHg"},
      {"measurement": "Mean (SD) Automated Office-Measured Systolic Blood Pressure at Wk 8", "setting": "25 mg BID, Age 65-79 yr", "result": "133.86 (19.37) mmHg"},
      {"measurement": "Mean (SD) Change from Baseline at Week 8 in Automated Office-Measured Diastolic Blood Pressure", "setting": "25 mg BID, Age 65-79 yr", "result": "−0.46 (14.22) mmHg"},
      {"measurement": "Mean (SD) Change from Baseline at Week 8 in Automated Office-Measured Systolic Blood Pressure", "setting": "25 mg BID, Age 65-79 yr", "result": "−7.82 (14.88) mmHg"},
      {"measurement": "Mean (SD) Automated Office-Measured Diastolic Blood Pressure at Wk 8", "setting": "25 mg BID, Age <65 yr", "result": "76.54 (7.57) mmHg"},
      {"measurement": "Mean (SD) Automated Office-Measured Systolic Blood Pressure at Wk 8", "setting": "25 mg BID, Age <65 yr", "result": "127.38 (13.07) mmHg"},
      {"measurement": "Mean (SD) Change from Baseline at Week 8 in Automated Office-Measured Diastolic Blood Pressure", "setting": "25 mg BID, Age <65 yr", "result": "−6.69 (8.06) mmHg"},
      {"measurement": "Mean (SD) Change from Baseline at Week 8 in Automated Office-Measured Systolic Blood Pressure", "setting": "25 mg BID, Age <65 yr", "result": "−12.31 (13.78) mmHg"},
      {"measurement": "Mean (SD) Automated Office-Measured Diastolic Blood Pressure at Wk 8", "setting": "25 mg BID, Age ≥80 yr", "result": "71.00 (NE) mmHg"},
      {"measurement": "Mean (SD) Automated Office-Measured Systolic Blood Pressure at Wk 8", "setting": "25 mg BID, Age ≥80 yr", "result": "146.00 (NE) mmHg"},
      {"measurement": "Mean (SD) Change from Baseline at Week 8 in Automated Office-Measured Diastolic Blood Pressure", "setting": "25 mg BID, Age ≥80 yr", "result": "−9.50 (NE) mmHg"},
      {"measurement": "Mean (SD) Change from Baseline at Week 8 in Automated Office-Measured Systolic Blood Pressure", "setting": "25 mg BID, Age ≥80 yr", "result": "−14.00 (NE) mmHg"},
      {"measurement": "Mean (SD) Automated Office-Measured Diastolic Blood Pressure at Wk 8", "setting": "25 mg BID, BMI 25−30 kg/m^2", "result": "78.89 (20.58) mmHg"},
      {"measurement": "Mean (SD) Change from Baseline at Week 8 in Automated Office-Measured Diastolic Blood Pressure", "setting": "25 mg BID, BMI 25−30 kg/m^2", "result": "1.11 (16.18) mmHg"},
      {"measurement": "Mean (SD) Automated Office-Measured Diastolic Blood Pressure at Wk 8", "setting": "25 mg BID, BMI <25 kg/m^2", "result": "69.25 (9.50) mmHg"},
      {"measurement": "Mean (SD) Change from Baseline at Week 8 in Automated Office-Measured Diastolic Blood Pressure", "setting": "25 mg BID, BMI <25 kg/m^2", "result": "−8.25 (7.63) mmHg"},
      {"measurement": "Mean (SD) Automated Office-Measured Diastolic Blood Pressure at Wk 8", "setting": "25 mg BID, BMI >30 kg/m^2", "result": "75.00 (6.97) mmHg"}
    ]}
  ]
}
